# From patent US20250146022A1, “STABILISING THE HUMAN SPINDLE BY KIFC1/HSET” (MAX-PLANCK-GESELLSCHAFT ZUR FOERDERUNG DER WISSENSCHAFTEN …, priority 2021, published 2025)
# Legend:
# [1] = system: human tripronuclear (3PN) zygotes; test: Live imaging of spindle assembly and chromosome segregation in human 3PN zygotes injected with KIFC1; assay type: cell-based; conditions: for multipolar / bipolar spindle assembly: human 3PN zygotes, FIG. 9, B to D
# Description: Spindles in human fertilized eggs (zygotes) have also been reported to often be multipolar (6, 7, 122). […] The inventors thus tested if the introduction of exogenous KIFC1 increased the fidelity of spindle assembly and chromosome segregation in human zygotes, by using human tripronuclear (3PN) zygotes. Similar to the zygotes in (6, 7, 122), these zygotes frequently assembled multipolar spindles. […] Furthermore, introduction of mClover3-KIFC1 protein increased the frequency of zygotes with aligned chromosomes at anaphase onset from 20% to 57% (FIG. 9E), and the frequency of zygotes without lagging chromosomes during anaphase from 40% to 71% (FIG. 9F). Thus, introducing exogenous KIFC1 increased the efficiency of bipolar spindle assembly and reduced the risk of aneuploidy in human zygotes.
# The use of human 3PN zygotes in this study was approved by the Ärztekammer Niedersachsen under the reference Bo/46/2020. Zygotes were collected from patients who underwent assisted reproduction treatment at Kinderwunschzentrum Göttingen and Fertility Center Berlin. All patients gave informed consent for their 3PN zygotes to be used in this study. For zygotes collected at Kinderwunschzentrum Göttingen, zygotes were cultured in G-1 PLUS medium (Vitrolife) under paraffin oil at 37° C. and 5% CO2. For zygotes collected at Fertility Center Berlin, zygotes were vitrified with Cryolock (FUJIFILM Irvine Scientific) using Vit Kit-Freeze (FUJIFILM Irvine Scientific). To maximize the survival and developmental rate of vitrified-thawed zygotes, zygotes were thawed in 1 ml of prewarmed G-MOPS PLUS (Vitrolife) containing 1 M D-(+)-trehalose (Sigma-Aldrich) at 37° C. for 1 min. Zygotes were then transferred to 300 μl of G-MOPS PLUS containing 0.5 M D-(+)-trehalose at room temperature for 3 min, 300 μl of G-MOPS PLUS containing 0.25 M D-(+)-trehalose at room temperature for 5 min, and 300 μl of G-MOPS PLUS at room temperature for 2 min. Recovered zygotes were cultured in G1-PLUS supplemented with 10% FBS under paraffin oil at 37° C. and 5% CO2. Staining and microinjection of human zygotes were performed as described above for human oocytes.
# human oocytes = test: Live imaging of spindle assembly and chromosome segregation in human oocytes microinjected with KIFC1/HSET (mClover3-HSET); assay type: cell-based
# Procedure: As shown in various Figures herein and specifically referred in Example 2, the bipolar meiotic spindle is assessed or detected by fluorescence microscopy or polarized light microscopy. In practice, the oocyte is not is typically not assessed by fluorescence microscopy, when the oocyte is used for in vitro fertilization at a later stage as this would require sacrificing the oocytes for analysis. The change in probability represents a characteristic of human oocytes when KIFC1/HSET is introduced into the human oocyte. […] Similarly, it is also expected that KIFC1/HSET stabilizes the mitotic spindle in human zygotes. The skilled person is aware of how to determine the duration of spindle pole instability and is provided with further guidance in Example 2 herein. Briefly, the duration of spindle pole instability refers to the duration of excessive spindle pole remodeling after early spindle bipolarization. In the case of human oocytes, the remodeling is largely the widening or fragmentation of spindle poles, which results in apolar or multipolar spindle. The start and end points are determined from the videos based on the first and last time points in which the spindle was not bipolar.
# Anaphase onset refers to the time point before chromosome separation was first observed, as defined in the inventors previous study (2). […] Thus, there was a difference of 30.6% relative to the starting percentage of 44%. In other words, the human oocytes in FIG. 8D into which KIFC1/HSET has been introduced have a 1.7 fold (75%/44%) higher probability of aligned chromosomes at anaphase onset in comparison to an oocyte without introduced KIFC1/HSET.
# In general, lagging chromosomes during anaphase are known in the art and are a consequence of chromosomes or chromatids not properly separating from each other. […] Lagging chromosomes are therefore a common cause of aneuploidy. […] Specifically, 33.3% of oocytes without introduced KIFC1/HSET had no lagging: chromosomes, while 62.5% of oocytes with introduced KIFC1/HSET had no lagging chromosomes. Thus, there was a difference of 29.5% based on the starting percentage of 33%. In other words, the human oocytes in FIG. 8E into which KIFC1/HSET has been introduced have a 1.9 fold (62.5%/33.3%) higher probability of aligned chromosomes at anaphase onset in comparison to an oocyte without introduced KIFC1/HSET.
# To confirm that the lack of KIFC1/HSET is a major contributor to spindle instability in human oocytes, the inventors introduced KIFC1/HSET into human oocytes in FIG. 8. To visualize the dynamics of microtubules and chromosomes using live cell imaging, human oocytes were stained with 5′-SiR-tubulin and SPY555-DNA, respectively. […] The inventors also quantified the frequency of misaligned chromosomes at anaphase onset (FIG. 8D) and lagging chromosomes (FIG. 8E) in human oocytes non-injected and injected with KIFC1/HSET. […] Together, the inventors infer that the introduction of KIFC1/HSET stabilized the meiotic spindle and reduced the risk of aneuploidy in human oocytes.
# The use of unfertilized human oocytes in this study was approved by the UK's National Research Ethics Service under the REC reference 11/EE/0346 (IRAS Project ID 84952) and the Ärztekammer Niedersachsen (Ethics Committee of Lower Saxony) under the reference 15/2016. Oocytes were collected from patients who underwent ovarian stimulation for intracytoplasmic sperm injection (ICSI) as part of their assisted reproduction treatment at the Bourn Hall Clinic or Kinderwunschzentrum Göttingen or Fertility Center Berlin. Only oocytes that were immature at the time of ICSI and thus unsuitable for the procedure were used in this study. All patients gave informed consent for their surplus oocyte(s) to be used in this study. Oocytes were cultured as previously described (1). Briefly, within 3-5 h after retrieval from ovaries, oocytes were transferred into G-MOPS (Vitrolife) supplemented with 10% FBS under paraffin oil at 37° C. […]
substance,measurement,setting,value
"KIFC1/HSET: Recombinant mClover3-tagged human kinesin-14 KIFC1/HSET protein (SEQ ID NO: 1), expressed in 293 cells, microinjected into human oocytes and zygotes",frequency of zygotes with aligned chromosomes at anaphase onset,"[1]; KIFC1-injected human 3PN zygotes, non-injected 20%, FIG. 9E",57%
same,frequency of zygotes without lagging chromosomes during anaphase,"[1]; KIFC1-injected human 3PN zygotes, non-injected 40%, FIG. 9F",71%
same,multipolar / bipolar spindle assembly,[1],significantly reduces multipolar spindle assembly and/or promoted bipolar spindle assembly
same,multipolar / bipolar spindle assembly,[1]; listed as mClover3-KIFC1,significantly reduced multipolar spindle assembly and promoted bipolar spindle assembly
same,"fold higher probability of aligned chromosomes at anaphase onset vs oocyte without introduced KIFC1/HSET (FIG. 8E, lagging chromosomes)","human oocytes; 62.5%/33.3%, FIG. 8E",1.9 fold
same,fold higher probability of aligned chromosomes at anaphase onset vs oocyte without introduced KIFC1/HSET,"human oocytes; 75%/44%, FIG. 8D",1.7 fold
same,difference in oocytes with no lagging chromosomes,human oocytes; based on the starting percentage of 33%,29.5%
same,time of early spindle bipolarization after onset of microtubule nucleation,"human oocytes; injected human oocytes, non-injected 2.4 h, p=0.7197, FIG. 8B",2.65 h
same,duration of spindle pole instability,"human oocytes; injected human oocytes, non-injected 10.3 h, p<0.0001, FIG. 8C",3.4 h
same,proportion of human oocytes with no lagging chromosome,"human oocytes; oocytes with introduced KIFC1/HSET, without 33.3%, FIG. 8E",62.5%
same,proportion of human oocytes with aligned chromosomes at anaphase onset,"human oocytes; oocytes with introduced KIFC1/HSET, without 44.4%, FIG. 8D",75%
same,difference in oocytes with aligned chromosomes at anaphase onset,human oocytes; relative to the starting percentage of 44%,30.6%
